Target: Plasma kallikrein (Homo sapiens, UniProt P03952)
Assay: Inhibition of human plasma kallikrein using fluorogenic substrate measured by microplate reader analysis
Format: cell-free

Chain of Plasma kallikrein (P03952 20-390 limits assumed): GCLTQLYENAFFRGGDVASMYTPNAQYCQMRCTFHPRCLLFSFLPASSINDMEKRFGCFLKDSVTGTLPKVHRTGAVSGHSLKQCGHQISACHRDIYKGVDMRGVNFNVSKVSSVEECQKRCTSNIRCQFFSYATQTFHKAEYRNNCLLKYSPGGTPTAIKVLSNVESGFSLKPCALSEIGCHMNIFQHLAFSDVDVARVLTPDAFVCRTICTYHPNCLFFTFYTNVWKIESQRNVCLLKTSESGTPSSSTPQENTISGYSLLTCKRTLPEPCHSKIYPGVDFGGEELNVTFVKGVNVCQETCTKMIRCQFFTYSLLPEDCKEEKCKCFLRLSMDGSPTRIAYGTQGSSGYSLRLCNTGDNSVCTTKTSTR
Chain of Plasma kallikrein (P03952 391-638 limits assumed): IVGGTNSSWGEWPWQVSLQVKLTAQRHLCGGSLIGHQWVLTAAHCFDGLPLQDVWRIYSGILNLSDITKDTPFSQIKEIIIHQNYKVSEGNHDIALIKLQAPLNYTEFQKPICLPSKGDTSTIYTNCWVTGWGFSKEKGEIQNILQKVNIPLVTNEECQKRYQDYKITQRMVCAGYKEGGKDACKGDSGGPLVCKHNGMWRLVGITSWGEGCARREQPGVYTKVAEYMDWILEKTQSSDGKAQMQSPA

Row | SMILES | IC50 [nM]
1 | COc1c(N2C[C@H]3C[C@H]3C2=O)ncc(C(C)n2cc(NC(=O)c3cncc(-c4c(C(F)F)ccc(Cl)c4F)n3)cn2)c1C (some centres not stated) | 0.3
2 | Cc1c([C@H](C)n2cc(NC(=O)c3cncc(-c4c(C(F)F)ccc(Cl)c4F)n3)cn2)cnc(N2C[C@H]3C[C@H]3C2=O)c1F | 0.3

Reference: ChEMBL document CHEMBL5036381, “Novel Plasma Kallikrein Inhibitors for Treating Hereditary Angioedema, Diabetic Macular Edema, and Diabetic Retinopathy” (ACS Med Chem Lett, 2022)
